Experimental data taken from ChEMBL document CHEMBL1138922, “Nepsilon-thioacetyl-lysine: a multi-facet functional probe for enzymatic protein lysine Nepsilon-deacetylation” (Bioorg Med Chem Lett, 2006).
Each block holds one compound with its values, some of them ahead of it. The source made the active and inactive calls. No cut-off for these calls is given here.

Columns and labels:
[1] = target: T1, NAD-dependent protein deacetylase sirtuin-1 (Homo sapiens, UniProt Q96EB6); experiment: (§1) Inhibition of human SIRT1
T1 sequence (Q96EB6 whole entry): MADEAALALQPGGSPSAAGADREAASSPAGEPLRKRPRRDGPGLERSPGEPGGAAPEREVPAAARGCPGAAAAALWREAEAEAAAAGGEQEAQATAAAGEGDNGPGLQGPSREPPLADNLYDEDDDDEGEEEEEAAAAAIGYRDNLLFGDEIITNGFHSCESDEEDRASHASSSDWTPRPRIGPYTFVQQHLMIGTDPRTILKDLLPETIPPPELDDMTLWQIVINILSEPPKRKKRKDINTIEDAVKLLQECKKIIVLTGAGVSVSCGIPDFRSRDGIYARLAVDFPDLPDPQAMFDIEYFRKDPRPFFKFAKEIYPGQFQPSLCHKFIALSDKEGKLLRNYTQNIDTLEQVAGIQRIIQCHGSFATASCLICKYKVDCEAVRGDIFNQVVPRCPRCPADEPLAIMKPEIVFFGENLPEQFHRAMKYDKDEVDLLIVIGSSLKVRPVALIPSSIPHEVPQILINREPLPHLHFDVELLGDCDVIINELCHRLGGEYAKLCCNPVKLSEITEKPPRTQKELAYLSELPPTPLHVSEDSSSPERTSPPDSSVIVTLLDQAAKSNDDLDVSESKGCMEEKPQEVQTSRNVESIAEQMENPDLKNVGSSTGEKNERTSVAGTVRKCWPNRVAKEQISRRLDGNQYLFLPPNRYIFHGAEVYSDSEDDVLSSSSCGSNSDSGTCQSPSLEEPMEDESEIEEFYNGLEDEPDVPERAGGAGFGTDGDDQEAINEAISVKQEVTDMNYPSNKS

[2] = target: T2, NAD-dependent protein deacetylase sirtuin-1 (Homo sapiens) (UniProt Q96EB6); experiment: as §1
T2 sequence (whole entry): T1 sequence (Q96EB6 whole entry)

[3] = target: T2, NAD-dependent protein deacetylase sirtuin-1 (Homo sapiens); experiment: Inhibition of human SIRT1 at 2 mM

IC50 [1]: 2 µM
Compound: CSCC[C@H](NC(=O)[C@H](CC(C)C)NC(=O)[C@H](CCCC/N=C(/C)S)NC(=O)[C@H](CCCCN)NC(=O)[C@H](Cc1c[nH]cn1)NC(=O)[C@H](CCCN=C(N)N)NC(=O)[C@H](CO)NC(=O)[C@@H](NC(=O)[C@H](CO)NC(=O)[C@H](CCC(N)=O)NC(=O)CNC(=O)[C@H](CCCCN)NC(=O)[C@@H](N)CCCCN)[C@@H](C)O)C(=O)N[C@@H](Cc1ccccc1)C(=O)N[C@@H](CCCCN)C(=O)N[C@H](C(=O)N[C@@H](CCC(=O)O)C(=O)NCC(=O)O)[C@@H](C)O

IC25 [2]: 2000 µM
Compound: C/C(S)=N/CCCC[C@H](NC(=O)OCC1c2ccccc2-c2ccccc21)C(=O)O

Activity [3]: inactive
Compound: CC(=O)N[C@@H](CCCC/N=C(/C)S)C(=O)O
